From the supplement of paper PMC10307832

Key:
Assay in all cases: relative viability (nuclei count vs DMSO), 5 days (fraction); higher = more cells survive
IPA-3 + Pictilisib = compound: C1=CC=C2C(=C1)C=CC(=C2SSC3=C(C=CC4=CC=CC=C43)O)O [IPA-3] + CS(=O)(=O)N1CCN(Cc2cc3nc(-c4cccc5[nH]ncc45)nc(N4CCOCC4)c3s2)CC1 [Pictilisib] (partner 1 µM)
In short: (§1)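 Medians of duplicate plates are given as relative viability. That measure is the nuclei count in treated wells divided by the count in vehicle wells. Counts were taken on 4× images of lung cancer cell lines in 1536-well plates, 5 days after pin-tool dosing the day after seeding with one drug alone or a fixed anchor-drug dose plus five library-drug doses (not always all listed) in √10 steps.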

IPA-3 + Trametinib = compound: C1=CC=C2C(=C1)C=CC(=C2SSC3=C(C=CC4=CC=CC=C43)O)O [IPA-3] + CC(=O)Nc1cccc(-n2c(=O)n(C3CC3)c(=O)c3c(Nc4ccc(I)cc4F)n(C)c(=O)c(C)c32)c1 [Trametinib] (partner 0.02 µM)
In short: as §1

Doramapimod + Alpelisib = compound: Cc1ccc(-n2nc(C(C)(C)C)cc2NC(=O)Nc2ccc(OCCN3CCOCC3)c3ccccc23)cc1 [Doramapimod] + Cc1nc(NC(=O)N2CCC[C@H]2C(N)=O)sc1-c1ccnc(C(C)(C)C(F)(F)F)c1 [Alpelisib] (partner 2 µM)
In short: as §1

RAF265 + Phenformin = compound: Cn1c(Nc2ccc(C(F)(F)F)cc2)nc2cc(Oc3ccnc(-c4ncc(C(F)(F)F)[nH]4)c3)ccc21 [RAF265] + N=C(N)NC(=N)NCCc1ccccc1 [Phenformin] (partner 250 µM)
In short: as §1

Cell Line	relative viability (IPA-3 + Pictilisib; first compound 0.2 µM)	relative viability (IPA-3 + Pictilisib; first compound 0.6325 µM)	relative viability (IPA-3 + Pictilisib; first compound 2 µM)	relative viability (IPA-3 + Pictilisib; first compound 6.325 µM)	relative viability (IPA-3 + Pictilisib; first compound 20 µM)	relative viability (IPA-3 + Trametinib; first compound 0.2 µM)	relative viability (IPA-3 + Trametinib; first compound 0.6325 µM)	relative viability (IPA-3 + Trametinib; first compound 2 µM)	relative viability (IPA-3 + Trametinib; first compound 6.325 µM)	relative viability (IPA-3 + Trametinib; first compound 20 µM)	relative viability (Doramapimod + Alpelisib; first compound 0.02 µM)	relative viability (Doramapimod + Alpelisib; first compound 0.06325 µM)	relative viability (Doramapimod + Alpelisib; first compound 0.2 µM)	relative viability (Doramapimod + Alpelisib; first compound 0.6325 µM)	relative viability (Doramapimod + Alpelisib; first compound 2 µM)	relative viability (RAF265 + Phenformin; first compound 0.01 µM)	relative viability (RAF265 + Phenformin; first compound 0.03162 µM)	relative viability (RAF265 + Phenformin; first compound 0.1 µM)	relative viability (RAF265 + Phenformin; first compound 0.3162 µM)	relative viability (RAF265 + Phenformin; first compound 1 µM)
HARA	0.452	0.346	0.333	0.4	0.402	0.884	0.899	0.63	0.591	1.02	0.807	0.762	0.742	0.846	0.598	0.498	0.345	0.445	0.39	0.329
HCC-15	0.853	0.783	0.724	0.776	0.841	0.444	0.352	0.391	0.422	0.436	0.854	0.801	0.884	0.906	0.775	0.486	0.483	0.464	0.355	0.316
HCC-44	0.605	1.49	0.53	1.04	0.63	1.09	1.04	1.13	0.984	1.05	0.811	0.764	0.756	0.76	0.701	0.183	0.241	0.209	0.199	0.19
HCC-78	0.23	0.218	0.229	0.229	0.282	0.832	0.714	0.806	0.849	0.918	0.288	0.327	0.325	0.343	0.285	0.87	0.847	0.832	0.647	0.652
HCC-366	0.161	0.152	0.0986	0.184	0.136	0.487	0.301	0.374	0.336	0.283	0.403	0.325	0.38	0.39	0.299	0.594	0.552	0.596	0.435	0.45
HCC-827	1.05	0.976	0.951	1.19	1.05	0.553	0.518	0.585	0.597	0.675	0.931	1.01	0.97	1.01	0.612	0.431	0.444	0.41		0.398
HOP-62	1.04	0.651	0.589	0.668	0.63	0.408	0.349	0.414	0.348	0.382	0.898	1.14	0.896	0.975	0.874	0.676	0.505	0.638	0.557	0.576
IA-LM	0.397	0.246	0.349	0.315	0.442						0.658	0.728	0.693	0.73	0.669					
LC-2-ad	0.461	0.627	0.502	0.443	0.43	0.958	0.943	0.93	0.948	0.889	0.943	0.995	0.884	0.888	0.835	0.628	0.581	0.586	0.394	0.455
NCI-H522						0.828	0.792	0.822	0.875	0.711						0.677	0.648	0.655	0.33	0.569
NCI-H1299	0.905	0.858	0.834	0.654	0.687						1.12	1.13	1.1	1.1	1.01					
NCI-H1563	0.68	0.62	0.622	0.694	0.59						0.859	0.912	0.893	1	0.802	0.676	0.674	0.66	0.64	0.623
NCI-H1623																0.652	0.578	0.646		0.388
NCI-H1648						0.476	0.495	0.555	0.494	0.524										
NCI-H1650	0.811	0.391	0.569	0.551	0.736	0.996	0.558	0.579	0.647	0.545						0.55	0.438	0.49	0.333	0.361
NCI-H1703	0.261	0.21	0.25	0.253	0.246						0.363	0.336	0.323	0.393	0.278					
NCI-H2342						0.74	0.734	0.955	0.872	0.937						0.502	0.617	0.679	0.468	0.549
SW 900						0.939	0.497	0.752	0.675	0.938						0.73	0.491	0.665	0.283	0.293
